Experimental data published in patent US10314816B2, “Antimicrobial compounds, compositions and methods of use thereof” (Wisconsin Alumni Research Foundation, priority 2012, dated 2019).

What was measured:
C. crescentus CB15N = assay: MIC of bacterial growth, macrodilution (Table 2); format: cell-based, Caulobacter crescentus; settings: Caulobacter vibrioides, actively growing cells, read-out: MIC
Experimental: Bacterial strains and growth conditions. Luria-Bertani (LB) media (10 g/L tryptone, 10 g/L NaCl, 5 g/L yeast extract, pH 7.2) was used to grow B. subtilis 168, S. aureus FRI100, and P. aeruginosa K1115 strains. For P. aeruginosa PAO1 and K1119 strains and two E. coli BW25113 strains, M8 minimal media (241 mg/L MgSO4, 4 mg/L glucose, 5 mg/L casamino acids, 12.8 g/L Na2HPO4.7H2O, 3 g/L KH2PO4, and 0.5 g/L NaCl) was used. PYE media (2 g/L peptone, 1 g/L yeast extract, 0.8 mM MgSO4, and 0.5 mM CaCl2) was used for culturing C. crescentus cells at 30° C. All cultures were grown at 37° C., except for C. crescentus (30° C.). All cultures were grown while shaking at 200 rpm.
Determination of the minimum inhibitory concentration (MIC) of bacterial growth. The MIC of various organisms in liquid media was determined using the macrodilution method according to the NCCLS guidelines. For the starting inoculum, cultures were diluted to contain approximately 5×10^5 cells/mL in growth media. To create a two-fold dilution series for the macrodilution technique, each compound was added to the first culture tube (4 mL total volume) at the highest concentration. 2 mL of this culture was diluted into an equal volume of inoculated media (a two-fold dilution). The final volume for each culture was 2 mL.

S. aureus FRI 100 = assay: Minimum biofilm inhibitory concentration (bMIC); format: cell-based, Staphylococcus aureus; settings: S. aureus FRI 100 biofilm
Experimental: Determination of the minimum biofilm inhibitory concentration of growth (bMIC) and biofilm eradication concentration (MBEC). Overnight cultures of C. crescentus and S. aureus were grown and diluted 100-fold into appropriate nutrient media. Aliquots of the diluted suspension were transferred into wells of 96-well plates (150 μL/well). 2-fold serial dilutions were performed for compound-containing wells. For every experiment, three replicates for each compound concentration tested were included. After transferring aliquots of the suspension, the plates were closed with specialized lids that have protruding pins (Nunc STP System), and the plates were sealed using Parafilm®. The plates were incubated in a static incubator at 30° C. (C. crescentus) or 37° C. (S. aureus) for 24 hours. After the cells had formed biofilms on the surface of the pins, the pins were rinsed by dipping them in M2 (C. crescentus) or PBS (S. aureus) solutions. To rinse the pins, clean, sterile 96-well plates were used (aliquots of 200 μL/well); each rinse lasted 10 sec. After washing away planktonic cells loosely bound to biofilms, the pins were inserted into a 96-well plate that was pre-aliquoted with nutrient media containing antibiotics (2-fold dilutions, a final volume of 150 μL/well). The plates were sealed with Parafilm®, and incubated for 17 hours, and the bMIC was measured at the end of the incubation by visual inspection. […] The plates were sealed with Parafilm®, incubated for 24 hours, and the MBEC was measured at the end of the incubation by visual inspection.
Membrane-active compounds are also efficient at eradicating biofilm-associated cells (Table 2). […] To determine the efficacy of antibiotics against biofilms, the minimum biofilm inhibitory concentration (bMIC) and the minimum biofilm eradication concentration (MBEC) were measured. […] After 24 hours of exposure to compounds, the lowest concentration of antibiotic that inhibited planktonic cell growth in the wells (bMIC) was determined.

Venus-FtsA = assay: Measurement of compound effects on FtsA localization; format: cell-based, Caulobacter crescentus; settings: C. crescentus, 20 minutes
Experimental: Measurement of compound effects on FtsA: For experiments with C. crescentus expressing Venus-FtsA, a synchronized population of cells was used. First, an overnight culture was grown with kanamycin (5 μg/mL) and glucose (0.02% w/v). The presence of glucose suppressed the transcription of venus-ftsA from its xylose-inducible promoter. 2 mL of this culture was diluted into 25 mL of fresh PYE with the antibiotic and glucose, and incubated further to achieve an absorbance of ˜0.6 (λ=600 nm). Once the cells reached mid-exponential phase, the culture was centrifuged for 10 minutes at 6000 rpm and 4° C. The cell pellet was resuspended in ice-cold M2 (a final volume of approximately 1000 μL) and 750 μL of this suspension was added to an equal-volume of sterile Percol (Sigma Aldrich). After thoroughly mixing the solution, it was centrifuged for 20 minutes at 11,000 rpm and 4° C. Upon centrifugation, the bottom band (swarmer cells) was taken and the cells were washed in ice-chilled M2 solution (1 mL). The washed cell pellet was suspended in fresh PYE containing kanamycin (no glucose, 6 mL). The cell suspension was incubated for 20 minutes and then xylose (0.03% w/v) was added to induce the expression of venus-ftsA. Cells were grown for another 20 minutes and subsequently treated with compounds. The cells were incubated for 20 minutes again in the presence of the compounds prior to imaging. Thus, the total time of xylose induction was 40 minutes, and the total time of compound treatment was 20 minutes. At this time point (60 minutes post synchrony), the majority of the cells were at the beginning of cell division. Imaging conditions and data analysis were identical to the conditions described for MipZ-YFP, except for a set of criteria used for defining ‘wildtype’ protein localization. ‘Wildtype’ was defined as 1) Venus-FtsA is unipolar, meaning there was one peak, and the peak resided within a polar region; and 2) Venus-FtsA was at the mid-cell, meaning there was one peak and it was within the mid-cell region (40-60% of the normalized cell length). […]

Compound	MIC (C. crescentus CB15N)	bMIC (S. aureus FRI 100)	Venus-FtsA localization (Venus-FtsA; treated with DCAP)	Venus-FtsA localization (Venus-FtsA; CCCP at its minimum inhibitory concentration (5 μM))	Venus-FtsA localization (Venus-FtsA; higher concentration of CCCP (25 μM))
OCC(CO)(CO)NCC(O)Cn1c2ccc(Cl)cc2c2cc(Cl)ccc21 (stereo not shown) [DCAP, 2-((3-(3,6-dichloro-9H-carbazol-9-yl)-2-hydroxypropyl)amino)-2-(hydroxymethyl)propane-1,3-diol]	15 µM	100 µM	exhibited multiple peaks of FtsA fluorescence (≥2)	–	–
N#CC(C#N)=NNc1cccc(Cl)c1 [CCCP, carbonyl cyanide m-chlorophenyl hydrazone]	5 µM	2.5 µM	–	did not alter the localization of FtsA	had a significant effect on the position of FtsA
